# Results: PubChem BioAssay (NCI)
#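 These data come from cells grown in 96-well plates and exposed to compound for 48 hours at five concentrations. At the GI50, growth is halved. At the TGI there is no net growth.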
# How the values were obtained:
# Experiment in all cases: growth of human tumour cells (NCI), 48 h
# [1] = test system: OVCAR-3 ovarian
# [2] = test system: COLO 205 colon
# [3] = test system: SK-MEL-5 melanoma
# [4] = test system: MDA-MB-435
# [5] = test system: A549 NSCLC
# [6] = test system: KM12 colon
# [7] = test system: MALME-3M melanoma
# [8] = test system: MCF7 breast
# [9] = test system: SF-539 CNS
# [10] = test system: SK-OV-3 ovarian
# [11] = test system: SK-MEL-28 melanoma
# [12] = test system: DU-145 prostate
# [13] = test system: CAKI-1 renal
# [14] = test system: NCI-H460 lung
# [15] = test system: UO-31 renal
# [16] = test system: HCT-15 colon
# [17] = test system: 786-0 renal
# [18] = test system: U251 CNS
# [19] = test system: HS 578T breast
# [20] = test system: LOX IMVI melanoma
# [21] = test system: CCRF-CEM leukemia
# [22] = test system: SNB-75 CNS
# [23] = test system: NCI-H23 lung
# [24] = test system: MOLT-4 leukemia
# [25] = test system: SW-620 colon
# [26] = test system: BT-549 breast
# [27] = test system: OVCAR-5 ovarian
# [28] = test system: SR leukemia
# [29] = test system: SN12C renal
# [30] = test system: RPMI-8226 leukemia
# [31] = test system: MDA-MB-468 breast
# [32] = test system: MDA-MB-231 breast
# [33] = test system: IGROV1 ovarian
# [34] = test system: HOP-62 NSCLC
# [35] = test system: K-562 leukemia
# [36] = test system: A498 renal
# [37] = test system: HL-60(TB) leukemia
# [38] = test system: EKVX NSCLC
# [39] = test system: PC-3 prostate
# [40] = test system: M14 melanoma
# [41] = test system: OVCAR-8 ovarian
# [42] = test system: T-47D breast
# [43] = test system: UACC-257 melanoma
# [44] = test system: HT29 colon
# [45] = test system: NCI-H522 lung
# [46] = test system: HCC-2998 colon
# [47] = test system: TK-10 renal
# [48] = test system: SF-295 CNS
# [49] = test system: SF-268 CNS
# [50] = test system: RXF 393 renal
# [51] = test system: OVCAR-4 ovarian
# [52] = test system: SK-MEL-2 melanoma
# [53] = test system: SNB-19 CNS
# [54] = test system: HCT-116 colon
# [55] = test system: HOP-92 NSCLC
# [56] = test system: ACHN renal
# [57] = test system: NCI-H226 lung
# [58] = test system: UACC-62 melanoma
# [59] = test system: NCI/ADR-RES ovarian
structure (smiles),measurement,setting,value
COC[C@@H](CC(C)C)N=C1N/C(=C\c2ccc3ncsc3c2)C(=O)N1C,GI50,[1],1.23 µM
same,TGI,[1],5.31 µM
same,GI50,[2],1.97 µM
same,TGI,[2],7.26 µM
same,GI50,[3],1.77 µM
same,TGI,[3],4.62 µM
same,GI50,[4],3.72 µM
same,TGI,[4],> 100 µM
same,GI50,[5],2.05 µM
same,TGI,[5],> 100 µM
same,GI50,[6],2.36 µM
same,TGI,[6],> 100 µM
same,GI50,[7],2.36 µM
same,TGI,[7],8.53 µM
same,GI50,[8],2.57 µM
same,TGI,[8],22.2 µM
same,GI50,[9],0.958 µM
same,TGI,[9],7.12 µM
same,GI50,[10],1.96 µM
same,TGI,[10],9.82 µM
same,GI50,[11],2.93 µM
same,TGI,[11],8.72 µM
same,GI50,[12],3.22 µM
same,TGI,[12],> 100 µM
same,GI50,[13],1.73 µM
same,TGI,[13],> 100 µM
same,GI50,[14],2.61 µM
same,TGI,[14],> 100 µM
same,GI50,[15],1.87 µM
same,TGI,[15],7.21 µM
same,GI50,[16],2.01 µM
same,TGI,[16],> 100 µM
same,GI50,[17],3.48 µM
same,TGI,[17],> 100 µM
same,GI50,[18],2.35 µM
same,TGI,[18],> 100 µM
same,GI50,[19],2.03 µM
same,TGI,[19],9.14 µM
same,GI50,[20],2.34 µM
same,TGI,[20],> 100 µM
same,GI50,[21],2.55 µM
same,TGI,[21],18.6 µM
same,GI50,[22],0.0476 µM
same,TGI,[22],4.84 µM
same,GI50,[23],2.02 µM
same,TGI,[23],14.2 µM
same,GI50,[24],2.8 µM
same,TGI,[24],> 100 µM
same,GI50,[25],1.54 µM
same,TGI,[25],> 100 µM
same,GI50,[26],2.01 µM
same,TGI,[26],9.51 µM
same,GI50,[27],4.15 µM
same,TGI,[27],> 100 µM
same,GI50,[28],2.17 µM
same,TGI,[28],24.9 µM
same,GI50,[29],3 µM
same,TGI,[29],> 100 µM
same,GI50,[30],2.7 µM
same,TGI,[30],12.3 µM
same,GI50,[31],0.999 µM
same,TGI,[31],6.09 µM
same,GI50,[32],3.9 µM
same,TGI,[32],> 100 µM
same,GI50,[33],2.26 µM
same,TGI,[33],> 100 µM
same,GI50,[34],2.23 µM
same,TGI,[34],8.86 µM
same,GI50,[35],1.76 µM
same,TGI,[35],> 100 µM
same,GI50,[36],1.2 µM
same,TGI,[36],4.97 µM
same,GI50,[37],2.55 µM
same,TGI,[37],8.29 µM
same,GI50,[38],3.06 µM
same,TGI,[38],> 100 µM
same,GI50,[39],4.24 µM
same,TGI,[39],> 100 µM
same,GI50,[40],4.11 µM
same,TGI,[40],> 100 µM
same,GI50,[41],2.65 µM
same,TGI,[41],> 100 µM
same,GI50,[42],2.01 µM
same,TGI,[42],> 100 µM
same,GI50,[43],2.81 µM
same,TGI,[43],> 100 µM
same,GI50,[44],3.27 µM
same,TGI,[44],16.2 µM
same,GI50,[45],1.34 µM
same,TGI,[45],6.03 µM
same,GI50,[46],2.67 µM
same,TGI,[46],18.6 µM
same,GI50,[47],3.8 µM
same,TGI,[47],> 100 µM
same,GI50,[48],3.25 µM
same,TGI,[48],> 100 µM
same,GI50,[49],2.85 µM
same,TGI,[49],> 100 µM
same,GI50,[50],2.18 µM
same,TGI,[50],6.85 µM
same,GI50,[51],4.29 µM
same,TGI,[51],> 100 µM
same,GI50,[52],1.53 µM
same,TGI,[52],3.77 µM
same,GI50,[53],0.999 µM
same,TGI,[53],> 100 µM
same,GI50,[54],1.22 µM
same,TGI,[54],> 100 µM
O/N=C(\CSc1nnc(-c2c[nH]c3ccccc23)n1-c1ccccc1)c1ccc(Br)cc1,GI50,[1],4.98 µM
same,TGI,[1],23.8 µM
same,GI50,[55],3.66 µM
same,TGI,[55],24.1 µM
same,GI50,[2],3.8 µM
same,TGI,[2],16.6 µM
same,GI50,[3],3.55 µM
same,TGI,[3],12.8 µM
same,GI50,[4],2.01 µM
same,TGI,[4],3.89 µM
same,GI50,[5],2.49 µM
same,TGI,[5],6.66 µM
same,GI50,[6],4.15 µM
same,TGI,[6],29.2 µM
same,GI50,[7],3.22 µM
same,TGI,[7],14.3 µM
same,GI50,[8],3.49 µM
same,TGI,[8],15.3 µM
same,GI50,[9],4.04 µM
same,TGI,[9],14.2 µM
same,GI50,[10],2.53 µM
same,TGI,[10],6.03 µM
same,GI50,[11],3.4 µM
same,TGI,[11],12.5 µM
same,GI50,[13],2.63 µM
same,TGI,[13],8.1 µM
same,GI50,[14],3.53 µM
same,TGI,[14],12.9 µM
same,GI50,[15],2.29 µM
same,TGI,[15],7.81 µM
same,GI50,[16],2.11 µM
same,TGI,[16],4.72 µM
same,GI50,[17],6.85 µM
same,TGI,[17],27 µM
same,GI50,[56],2.53 µM
same,TGI,[56],7.05 µM
same,GI50,[18],4.38 µM
same,TGI,[18],17.3 µM
same,GI50,[19],2.84 µM
same,TGI,[19],11.9 µM
same,GI50,[20],1.71 µM
same,TGI,[20],3.12 µM
same,GI50,[57],3.33 µM
same,TGI,[57],14.9 µM
same,GI50,[22],1.87 µM
same,TGI,[22],4.95 µM
same,GI50,[23],4.31 µM
same,TGI,[23],19.6 µM
same,GI50,[24],2.09 µM
same,TGI,[24],4.8 µM
same,GI50,[25],3.28 µM
same,TGI,[25],12.1 µM
same,GI50,[26],3.16 µM
same,TGI,[26],7.25 µM
same,GI50,[58],1.77 µM
same,TGI,[58],3.74 µM
same,GI50,[27],2.18 µM
same,TGI,[27],5.21 µM
same,GI50,[29],2.52 µM
same,TGI,[29],7.97 µM
same,GI50,[31],1.72 µM
same,TGI,[31],3.3 µM
same,GI50,[32],1.71 µM
same,TGI,[32],3.26 µM
same,GI50,[33],3.41 µM
same,TGI,[33],11.7 µM
same,GI50,[36],16.3 µM
same,TGI,[36],51.7 µM
same,GI50,[37],1.92 µM
same,TGI,[37],4.55 µM
same,GI50,[38],2.6 µM
same,TGI,[38],9.09 µM
same,GI50,[39],2.15 µM
same,TGI,[39],4.96 µM
same,GI50,[40],3.4 µM
same,TGI,[40],17.6 µM
same,GI50,[41],2.45 µM
same,TGI,[41],6.5 µM
same,GI50,[42],3.51 µM
same,TGI,[42],17.2 µM
same,GI50,[43],3.87 µM
same,TGI,[43],17.5 µM
same,GI50,[44],2.23 µM
same,TGI,[44],5.03 µM
same,GI50,[45],2.52 µM
same,TGI,[45],7.7 µM
same,GI50,[46],3.36 µM
same,TGI,[46],12.3 µM
same,GI50,[47],2.8 µM
same,TGI,[47],7.63 µM
same,GI50,[48],1.93 µM
same,TGI,[48],4.7 µM
same,GI50,[59],1.9 µM
same,TGI,[59],3.91 µM
same,GI50,[50],1.75 µM
same,TGI,[50],3.65 µM
same,GI50,[52],3.1 µM
same,TGI,[52],10.4 µM
same,GI50,[53],4.33 µM
same,TGI,[53],19.8 µM
same,GI50,[54],3.45 µM
same,TGI,[54],17.4 µM
